According to patent publication US5840750A, “Discodermolide compounds” (priority 1996, dated 1998):
Where two headings read alike, the source gives them in different places.

Tests used:
[1] = system: P388; test: P388 IC50 (biological activity of octahydrodiscodermolide compounds); type: cell-based
Procedure: (§1) The octahydrodiscodermolide compounds were tested for biological activity and the following results obtained: […]

[2] = system: A549; test: A549 IC50 (biological activity of octahydrodiscodermolide compounds); type: cell-based, human
Procedure: as §1

[3] = system: M14; test: NCI in vitro tumor cell line panel, LC50, melanoma; type: cell-based; settings: human melanoma (M14)
Source text: (§2) Discodermolide was additionally evaluated for its anti-proliferative effects utilizing the National Cancer Institute's in vitro tumor cell line panel. The results of these analyses are shown in the mean graphs presented as FIGS. 1A-1K. The data are presented using known and accepted measurements of "Growth Inhibition-50" (GI50), where growth of 50% of the cells is inhibited; "Total Growth Inhibition" (TGI), where growth of all cells is inhibited, i.e., cytostasis; and "Lethal Concentration-50" (LC50), where 50% of the cells are killed.

[4] = system: Swiss 3TC; test: Constitutive proliferation of murine non-lymphoid Swiss 3TC cells; type: cell-based
Source text: (§7) The effects of discodermolide on the inhibition of constitutive proliferation of a number of lymphoid and non-lymphoid cell lines of mouse or human origin was investigated.

[5] = system: MDA-N; test: NCI in vitro tumor cell line panel, LC50, breast cancer; type: cell-based, human
Source text: as §2

[6] = system: MDA-MB-435; test: as above; type: cell-based, human
Source text: as §2

[7] = system: murine lymphoid and non-lymphoid cell lines; test: Constitutive proliferation of murine lymphoid and non-lymphoid cell lines (summary); type: cell-based; settings: Mus musculus, read-out: IC50 values, range over murine cell lines
Source text: as §7

[8] = system: F7 Fibroblast; test: Constitutive proliferation of murine non-lymphoid F7 fibroblasts; type: cell-based; settings: Mus musculus, best response
Source text: as §7

[9] = system: tubulin; test: Electron micrographs of polymers of tubulin; type: biochemical; settings: compared with control
[10] = system: microtubule cytoskeleton in MCF-7 cells and MDA-MB-231 cells; test: Indirect immunofluorescence for effects on the microtubule cytoskeleton of human breast carcinoma cells; type: cell-based; settings: for minimal effective concentration: Homo sapiens, Breast carcinoma cell
Procedure: (§3) The effect of discodermolide on two human breast carcinoma cell lines, estrogen receptor positive MCF-7 cells, and estrogen receptor negative MDA-MB-231 cells, was determined. The results were compared with those obtained by treatment with taxol. Both lines were examined for drug effects on growth and by indirect immunofluorescence for effects on the microtubule cytoskeleton. The results were similar for both lines. […] These patterns appeared at concentrations as low as 10 nm.

[11] = system: EL-4 Thymoma; test: Constitutive proliferation of murine lymphoid EL-4 thymoma cells; type: cell-based; settings: Mus musculus; EL-4 Thymoma proliferation; best response
Source text: as §7

[12] = system: BMSC 8.6; test: Constitutive proliferation of murine non-lymphoid BMSC 8.6 cells; type: cell-based
Source text: (§4) ^d Bone marrow stromal cells (MBSC) derived from CS7BL/6 mice.

[13] = system: A549 human lung cells; test: Cell cycle analysis of A549 human lung cells; type: cell-based; settings: 48 hours; for percentage of S phase cells (in words): control 19%; for percentage of cells in G2 /M / percentage of cells in G1: discodermolide 100 ng/ml; for percentage of cells in G2 /M: control 4%; for percentage of cells in G1: control 77%
Procedure: (§5) Cell cycle studies were initiated in order to pinpoint a specific phase within the cell cycle in which discodermolide was exerting its antiproliferative effect. GI-101A human breast and A549 human lung cells were used as cell cycle targets to compare the effects of discodermolide and taxol on perturbation of the cell cycle. Cell cycle analyses were performed as follows: GI-101A and A549 cells were incubated at 37° C. in 10% CO2 in air in the presence or absence of varying concentrations of discodermolide or taxol (purchased from Molecular Probes, Eugene, Oreg.) for 48 hours. Cells were harvested, fixed in ethanol, and stained with 0.5 mg/ml of propidium iodide (P.I.) together with 0.1 mg/ml of RNase A. This procedure permeabilizes live cells and allows entry of P.I. to stain DNA. Stained preparations were analyzed on a Coulter EPICS ELITE with 488 nm excitation with the dead cells excluded by back-gating of P.I. preparations without detergent on forward and side scatter histograms. Fluorescence measurements and resulting DNA histograms were collected from at least 5,000 P.I. stained cells at an emission wavelength of 690 nm. Raw histogram data were further analyzed using a cell cycle analysis program (Multicycle, Phoenix Flow Systems).
Discodermolide and taxol were compared for their effects on the proliferation of A549 human lung cells. Cell cultures were similarly initiated in the presence and absence of various concentrations of discodermolide or taxol and incubated at 37° C. in 10% CO2 in air for 48 hours. Cells were harvested and stained and analyzed on the flow cytometer as outlined above.

[14] = system: NCI-H23; test: NCI in vitro tumor cell line panel, LC50, non-small cell lung cancer; type: cell-based; settings: human non-small cell lung cancer (NCI-H23)
Source text: as §2

[15] = system: Jurkat human leukemia cells; test: Cell cycle analysis of Jurkat human leukemia cells; type: cell-based; settings: 48 hours, discodermolide 100 ng/ml; for percentage of cells in G2 /M: control 7%; for percentage of S-phase cells: control 25%; for percentage of cells in G1: control 68%
Procedure: Discodermolide and taxol were compared for their effects on the proliferation of Jurkat human leukemia cells. Cell cultures were similarly initiated in the presence and absence of various concentrations of discodermolide or taxol and incubated at 37° C. in 10% CO2 in air for 48 hours. Cells were harvested and stained and analyzed on a flow cytometer using standard procedures. […] The percentage of S-phase cells in both groups increased from 25% in the control to 38% in both discodermolide- and taxol-treated cells.

[16] = system: GI-101A human breast cells; test: Cell cycle analysis of GI-101A human breast cells; type: cell-based; settings: 24 hours; for effect on cell cycle progression: GI-101A; for percentage of cells in G2 /M / percentage of S phase cells / percentage of cells in G1 phase: discodermolide 100 ng/ml; for percentage of cells in G2 /M: control 14%; for percentage of S phase cells: control 30%; for percentage of cells in G1 phase: control 56%
Procedure: as §5
Approximately 56% of the control cells comprise the G1 phase of the cell cycle, and 30% comprise the S phase. Only approximately 14% of cells are demonstrable in the G2 /M phase in asynchronous cultures at any one time mainly due to their high proliferative rate (FIG. 2A). At 24 hours post culture initiation with 100 ng/ml of discodermolide, the percentage of cells in G1 phase decreased to 22%. […] The percentage of cells in G1 decreased from 56% in the control to 27% in taxol-treated cultures.

[17] = system: bovine brain tubulin; test: Tubulin polymerization monitored turbidimetrically; type: biochemical; settings: for temperature at which tubulin polymerization/assembly began: 10 μM tubulin, MAPs, GTP, control 37° C.; for stability of assembly upon return of the mixture to 0° C.: control disassembled
Procedure: (§6) Discodermolide was analyzed for its interactions with tubulin. Tubulin polymerization was monitored turbidimetrically at 350 nm with an electronic temperature controller. Reaction mixtures contained 0.1M 4-morpholine-ethanesulfonate (pH 6.9), 1.0 mg/ml (10 μM) electrophoretically-homogenous bovine brain tubulin freed of unbound nucleotide by gel filtration, 0.5 mg/ml heat-treated MAPs, 100 μM GTP, and 4% (v/v) dimethylsulfoxide. A concentration of 10 μM of discodermolide (curve 3) was compared with the same concentration of taxol (curve 2) and no drug (curve 1), as shown in FIG. 5.

[18] = system: Normal Fibroblast; test: Constitutive proliferation of human non-lymphoid normal (foreskin) fibroblasts
[19] = as above; settings: human, foreskin fibroblasts
[20] = system: human tumor cell lines; test: National Cancer Institute's in vitro tumor cell line panel; type: cell-based
Source text: as §2

[21] = system: SF 295; test: NCI in vitro tumor cell line panel, LC50, CNS cancer; type: cell-based, human
Source text: as §2

[22] = system: SF 539; test: as above; type: cell-based, human
Source text: as §2

[23] = system: BMSC 25.4; test: Constitutive proliferation of murine non-lymphoid BMSC 25.4 cells; type: cell-based
Source text: as §4

[24] = system: 70Z/3 Pre-B; test: Constitutive proliferation of murine lymphoid 70Z/3 Pre-B cells; type: cell-based; settings: Mus musculus; 70Z/3 Pre-B proliferation; best response
Source text: as §7

[25] = system: tubulin; test: Assembly of tubulin without MAPs or GTP; type: biochemical
Procedure: as §6, with “[…],” for “0.5 mg/ml heat-treated MAPs, 100 μM GTP,”

[26] = system: HCC-2998; test: NCI in vitro tumor cell line panel, LC50, colon cancer; type: cell-based; settings: human colon cancer (HCC-2998)
Source text: as §2

[27] = system: COLO 205; test: as above; type: cell-based; settings: human colon cancer (COLO 205)
Source text: as §2

[28] = system: tubulin; test: EC50 for the polymerization of tubulin; type: biochemical; settings: additional studies
Procedure: as §6

[29] = system: MCF-7 cells and MDA-MB-231 cells; test: Growth of human breast carcinoma cells; type: cell-based; settings: Breast carcinoma cell, results similar for both lines (MCF-7, MDA-MB-231)
Procedure: as §3

[30] = system: BMSC 8.3; test: Constitutive proliferation of murine non-lymphoid BMSC 8.3 cells; type: cell-based
Source text: as §4

[31] = system: microtubules; settings: literature; cited from earlier work
[32] = system: cancers; settings: clinical trials; cited from earlier work

octahydrodiscodermolide [20SG724]
IC50 [1]: 3.56 µg/mL
IC50 [2]: > 5 µg/mL

C=C/C=C\C(C)C(OC(N)=O)C(C)C(O)C(C)C/C(C)=C\C(C)C(O)C(C)/C=C\C(O)CC1OC(=O)C(C)C(O)C1C (single isomer, unassigned) [discodermolide]
LC50 (in words) [3]: particularly effective
IC50 ([4]; Mus musculus, Swiss 3TC proliferation, best response): 37 nM
LC50 (in words) [5]: particularly effective
LC50 (in words) [6]: particularly effective
IC50 [7]: 3 to 60 nM
IC50 [8]: 60 nM
electron micrographs of polymers of tubulin [9]: very similar characteristics, presence of polymers, microtubules, and sheets
minimal effective concentration ([10]; read-out: concentration at which immunofluorescence patterns appeared): 0.01 µM
Immunofluorescence patterns ([10]; cellular microtubules): remarkable rearrangement of cellular microtubules
IC50 [11]: 30 nM
IC50 ([12]; Mus musculus, BMSC 8.6 proliferation, best response): 84 nM
percentage of S phase cells (in words) [13]: did not change significantly
percentage of cells in G2 /M [13]: 67%
percentage of cells in G1 [13]: 18%
LC50 (in words) [14]: particularly effective
percentage of cells in G2 /M [15]: 27%
percentage of S-phase cells [15]: 38%
percentage of cells in G1 [15]: 35%
effect on cell cycle progression [16]: block at G2 /M phase of the cell cycle
percentage of cells in G2 /M [16]: 38%
percentage of S phase cells [16]: 41%
percentage of cells in G1 phase [16]: 22%
extent of tubulin polymerization at 0° C. ([17]; 10 μM drug, 0° C.): almost complete
temperature at which tubulin polymerization/assembly began ([17]; 10 μM drug): 0 °C
stability of assembly upon return of the mixture to 0° C. ([17]; 10 μM drug): remained stable
mechanism of action in regard to stabilization of microtubules ([17]; compared to taxol): superior to that of taxol
IC50 ([18]; Homo sapiens, Fibroblast): 15 nM
viable cell recovery (toxicity) ([18]; human foreskin fibroblast, concentrations up to 3.0 μM): not affected
CC50 [19]: > 3000 nM
selective cytotoxicity, number of cell lines for GI50 ([20]; approximately 60 cell lines tested, GI50): 32 cell lines
selective cytotoxicity, number of cell lines for TGI ([20]; approximately 60 cell lines tested, TGI): 18 cell lines
cytotoxicity pattern (COMPARE algorithm) ([20]; statistical analysis of selective toxicity pattern): matched that of several previously tested microtubule interactive agents, including the pattern generated by taxol
LC50 (in words) [21]: particularly effective
LC50 (in words) [22]: particularly effective
IC50 ([23]; Mus musculus, BMSC 25.4 proliferation, best response): 59 nM
IC50 [24]: 3 nM
assembly of tubulin without MAPs or GTP [25]: induced the assembly of tubulin
assembly reactions compared to taxol ([25]; especially at low temperatures): more dramatic compared to those observed with taxol
LC50 (in words) [26]: particularly effective
LC50 (in words) [27]: particularly effective
EC50 [28]: 2700 nM
IC50 [29]: 2.4 nM
IC50 ([30]; Mus musculus, BMSC 8.3 proliferation, best response): 50 nM

Cyclosporin A [reference compound]
inhibition (Cyclosporin A) ([4]; 3T3, up to 1 μg/ml): no
inhibition (Cyclosporin A) ([12]; BMSC lines, up to 1 μg/ml): no
inhibition (Cyclosporin A) ([18]; human fibroblasts, up to 3 μM): no
inhibition (Cyclosporin A) ([23]; BMSC lines, up to 1 μg/ml): no
inhibition (Cyclosporin A) ([30]; BMSC lines, up to 1 μg/ml): no

CC(=O)O[C@H]1C(=O)[C@@]2(C)[C@H]([C@H](OC(=O)c3ccccc3)[C@]3(O)C[C@H](OC(=O)[C@H](O)[C@@H](NC(=O)c4ccccc4)c4ccccc4)C(C)=C1C3(C)C)[C@]1(OC(C)=O)CO[C@@H]1C[C@@H]2O [taxol, reference compound]
effect on microtubules [31]: stabilizes microtubules and inhibits their depolymerization to free tubulin
electron micrographs of polymers of tubulin [9]: very similar characteristics, presence of polymers, microtubules, and sheets; however, the taxol-inducedpolymers were somewhat longer than those induced with discodermolide
minimal effective concentration ([10]; only at much higher drug concentrations, read-out: concentration at which immunofluorescence changes occurred): 1 µM
percentage of S phase cells (in words) [13]: did not change significantly
percentage of cells in G2 /M [13]: 77%
percentage of cells in G1 [13]: 11%
percentage of cells in G2 /M [15]: 28%
percentage of S-phase cells [15]: 38%
percentage of cells in G1 [15]: 34%
effect on cell cycle progression [16]: block at G2 /M
percentage of cells in G2 /M [16]: 37%
percentage of S phase cells [16]: 37%
percentage of cells in G1 phase [16]: 27%
temperature at which tubulin polymerization/assembly began ([17]; 10 μM drug): 10 °C
stability of assembly upon return of the mixture to 0° C. ([17]; 10 μM drug): modest decline
clinical effect [32]: effective in the treatment of a wide range of cancers
EC50 [28]: 23000 nM
IC50 [29]: 2.1 nM

octahydrodiscodermolide [20SG721]
IC50 [1]: 0.02 µg/mL
IC50 [2]: 0.008 µg/mL
